“Also recorded” adds a separate entry of the source.
Tests used:
[1] = Spectroscopic analysis: absorbance, emission and quantum yield of Nile Red derivatives; format: physicochemical
Procedure: Tandem liquid chromatography mass spectroscopy (LCMS) analysis (Agilent 1260 LC system with a 6224 time of flight (TOF) MS, Agilent, Santa Clara, Calif.) was performed using a 2.7 micron C18 column (4.6×50 mm, Agilent). High performance liquid chromatography (HPLC) purification (Agilent 1260 system with a preparative pump) was performed using a 5 micron C18 column (21.2×150 mm, Agilent). For both HPLC and LCMS, the mobile phase consisted of HPLC grade acetonitrile and water, treated with 0.1% formic acid. Spectroscopic analysis was performed on a Spectramax M5 spectrometer (Molecular Devices, Sunnyvale, Calif.) using a quartz cuvette with a 1 cm pathlength. Quantum yield was calculated according to equation (1).
Where Ø is the quantum yield, F is the integrated fluorescence intensity, f is the absorbance at the excitation wavelength and n is the refractive index of the solvent. S refers to the quantum yield standard (Rhodamine B)^25 and X refers to the unknown sample.

[2] = system: U2OS human osteosarcoma cell line; test: Nile Red derivative cell staining and imaging, fixed and live cells; format: cell-based; details: 1 μM; for fluorescence intensity in fixed cells: U2OS fixed with 4% PFA, imaged without washing; for fluorescence intensity in fixed cells / fluorescence intensity in live cells without washing / structures observed in live cells without washing: 5 min; for fluorescence intensity in live cells without washing / structures observed in live cells without washing: U2OS live, imaged in staining solution
Procedure: The U2OS human osteosarcoma cell line was cultured in Dulbecco's Modified Eagle Medium (DMEM, Thermo Fisher Scientific, Waltham, Mass.) with 10% fetal bovine serum (FBS, VWR, Radnor, Pa.) and 1% Penicillin/Steptomycin 100× (Thermo Fisher Scientific) at 37° C. in 5% CO2. For live cell imaging studies, Fluorobrite DMEM media (Thermo Fisher Scientific) was used in place of DMEM. For imaging studies, cells were grown in 96-well glass bottom plates (Cellvis, Mountain View, Calif.) for 48 hours, with a final confluence of <80%. Nile Red and its derivatives were prepared at 1-10 mM stock concentration in DMSO and diluted into media or buffer for cell staining and imaging studies.
Cell staining studies were completed on fixed and live U2OS cells using Nile Red and each synthesized Nile Red derivative described as follows. For fixed cell staining, cells were washed once with 1× phosphate buffered saline (PBS), then fixed with 4% paraformaldehyde (PFA) for 20 minutes at room temperature. The PFA was removed and each well was washed three times for 5 mins per wash (3×5 mins) with 1×PBS. The Nile Red fluorophores were diluted into 1×PBS to a final concentration of 1 μM, incubated for 5 minutes with the cells, and images were collected without washing. Live cell staining was completed using two methods. First, cells were washed once with Fluorobrite DMEM. The Nile Red fluorophore solution was prepared in Fluorobrite DMEM by diluting to a final concentration of 1 μM for staining, where cells were stained for 5 minutes. The fluorophore containing media was removed and the cells were fixed for 20 minutes using 4% PFA. Cells were then washed 3×5 mins with Fluorobrite DMEM prior to imaging. Second, cells were washed with Fluorobrite DMEM without FBS once for 5 minutes. Nile Red fluorophore solutions were prepared in Fluorobrite without FBS at 1 μM final concentration for cell staining. The cells were stained with the prepared solution for 5 minutes and imaged in the staining solution. All images were collected at their ideal exposure times to permit visualization of stained intracellular structures.
All ex vivo and cellular fluorescence and white light images were collected using a Zeiss AxioObserver inverted fluorescence microscope (Carl Zeiss, Oberkochen, Germany). All cell images were collected at 40× magnification and all tissue section images were collected at 10× magnification. Fluorescence excitation was completed using a Photofluor II broad band light source (89 North, Burlington, Vt.) filtered with a 545±12.5 nm bandpass excitation filter. Fluorescence images were collected using a 605±35 nm bandpass emission filter and a AxioCam 506 monochromo camera (Zeiss). All Filters were Purchased from Chroma Technologies (Bellows Falls, Vt.).

[3] = system: CD-1 mouse sciatic nerve and surrounding muscle and adipose tissues; test: Ex vivo tissue section staining, imaging and fluorescence quantification; details: for tissue fluorescence intensity, region of interest analysis / tissue staining specificity on mouse tissue sections: 100 μM, 40 min; for tissue fluorescence intensity, region of interest analysis: n=4 tissue sections; for tissue staining specificity on mouse tissue sections: sections with nerve, muscle, adipose; for adipose to muscle ratio: ex vivo tissue sections, vs control autofluorescence
Procedure: Cryosections of CD-1 mouse sciatic nerve and surrounding muscle and adipose tissues from unrelated experiments were cut from optimal cutting temperature (OCT, Fisher Scientific, Hampton, N.H.) embedded frozen tissues. Cryosectioned tissues were captured on superfrost plus slides (Fisher Scientific) at 10 μm thickness. The tissue sections were washed with 1×PBS for 2 minutes to remove OCT, and then fixed with 2% PFA for 15 mins. The tissue sections were then washed with 0.1% Tween 20 in 1×PBS (3×5 mins), followed by incubation with 100 μM of Nile Red and each Nile Red derivative formulated using 10% DMSO, 5% Kolliphore (Sigma Aldrich, St. Louis, Mo.), 63.75% FBS, and 21.25% 1× PBS as previously described.^26 Tissue sections were incubated with the formulated fluorophores for 40 minutes at room temperature, followed by washing with blank formulation not containing fluorophore (2×5 mins). Each tissue section was then washed with 1×PBS (2×5 mins), fixed for 15 minutes using 2% PFA, followed by a final wash with 1×PBS for 5 mins before mounting in glycerol (Fisher Scientific). Images were collected at an exposure time of 650 ms for all Nile Red and Nile Red derivative stained sections. Four tissue sections were stained for Nile Red and each Nile Red derivative, facilitating adipose to muscle and adipose to nerve contrast ratio quantification where tissue intensities were quantified using region of interest analysis with custom written MatLab code (The MathWorks, Natick, Mass.). For each tissue type, a representative area was selected, where a threshold based mask was set to determine tissue from background. The mean tissue intensity was calculated in adipose, nerve and muscle tissues as the intensity per second and used to calculate the adipose to nerve and adipose to muscle contrast ratios. All ex vivo and cellular fluorescence and white light images were collected using a Zeiss AxioObserver inverted fluorescence microscope (Carl Zeiss, Oberkochen, Germany). All cell images were collected at 40× magnification and all tissue section images were collected at 10× magnification. Fluorescence excitation was completed using a Photofluor II broad band light source (89 North, Burlington, Vt.) filtered with a 545±12.5 nm bandpass excitation filter. Fluorescence images were collected using a 605±35 nm bandpass emission filter and a AxioCam 506 monochromo camera (Zeiss). All Filters were Purchased from Chroma Technologies (Bellows Falls, Vt.).

absorbance maximum ([1]; in toluene) [nm]	emission maximum ([1]; in toluene) [nm]	SMILES	Max Abs ([1]; in DMSO) [nm]	Max Em ([1]; in DMSO) [nm]	fluorescence intensity in fixed cells [2]	fluorescence intensity in live cells without washing [2]	structures observed in live cells without washing [2]	tissue fluorescence intensity, region of interest analysis [3]	tissue staining specificity on mouse tissue sections [3]	adipose to muscle ratio [3]	Stokes Shift ([1]; in DMSO) [nm]	QY (quantum yield) ([1]; in DMSO, standard Rhodamine B)	fluorescence intensity in both the fixed and live in vitro imaging studies ([2]; U2OS)
520	570	CCN(CC)c1ccc2nc3c4ccccc4c(=O)cc-3oc2c1 [Nile Red]	550	630	bright	brightest overall	Prominent lipid droplet like structures	strong nerve and adipose fluorescence staining; also recorded: highest overall tissue fluorescence	adipose specificity	increased contrast over control autofluorescence adipose to muscle ratio; also recorded: highest contrast ratios	–	–	–
–	–	CCN(CC)c1ccc2nc3c4ccc(-c5ccc(C#N)cc5)cc4c(=O)cc-3oc2c1 [NR5, 4-(9-(diethylamino)-5-oxo-5H-benzo[a]phenoxazin-3-yl)benzonitrile]	560	640	bright	brightest of the synthesized derivatives	Prominent lipid droplet like structures	strong nerve and adipose fluorescence staining; also recorded: substantially higher adipose, nerve and muscle tissue fluorescence	adipose specificity; also recorded: brightest overall tissue staining compared to the other Nile Red derivatives	increased contrast over control autofluorescence adipose to muscle ratio; also recorded: highest contrast ratios	80	0.54	brightest fluorescence intensity of the Nile Red derivatives
